Consider 61 compounds from patent US8846746B2, “Pyrazole compound and pharmaceutical use thereof” (Japan Tobacco Inc., priority 2011, dated 2014).

Sequence of human SGLT1 (P13866 whole entry): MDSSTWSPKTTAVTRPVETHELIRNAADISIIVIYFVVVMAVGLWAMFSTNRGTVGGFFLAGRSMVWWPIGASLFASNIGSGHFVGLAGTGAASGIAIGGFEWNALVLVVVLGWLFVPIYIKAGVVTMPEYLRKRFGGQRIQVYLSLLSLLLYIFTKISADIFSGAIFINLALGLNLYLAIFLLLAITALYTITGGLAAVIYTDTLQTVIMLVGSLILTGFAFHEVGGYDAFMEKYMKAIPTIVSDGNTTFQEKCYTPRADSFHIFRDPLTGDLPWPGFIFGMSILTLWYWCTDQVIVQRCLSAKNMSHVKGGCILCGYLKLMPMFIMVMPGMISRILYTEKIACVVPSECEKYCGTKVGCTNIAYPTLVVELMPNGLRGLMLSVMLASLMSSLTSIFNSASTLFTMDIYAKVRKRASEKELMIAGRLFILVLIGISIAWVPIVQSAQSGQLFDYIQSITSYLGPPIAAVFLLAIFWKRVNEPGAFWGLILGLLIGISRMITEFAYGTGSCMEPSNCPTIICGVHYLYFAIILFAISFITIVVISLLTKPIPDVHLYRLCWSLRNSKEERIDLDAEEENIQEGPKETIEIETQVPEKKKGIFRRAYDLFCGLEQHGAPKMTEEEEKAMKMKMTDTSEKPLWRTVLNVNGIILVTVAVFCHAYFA

The first assay addresses human SGLT1 (Homo sapiens (Human), UniProt P13866). As to the kind of experiment: SGLT1 inhibitory activity: 14C-AMG uptake into CHO-K1 cell line stably expressing human SGLT1. It is filed as cell-based. To be noted: 14C-AMG uptake, CHO-K1 cells stably expressing human SGLT1. Put shortly:
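CHO-K1 cells stably expressing human SGLT1 were pre-incubated 20 min in Na(−) buffer (pH 7.4). Test compound in Na(+) buffer with BSA was added with ¹⁴C-AMG (8 kBq) plus unlabelled AMG (2 mM in the added solution) for 1 h at 37 °C.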
The term IC50 denotes the concentration that inhibits the measured activity by half. A high value points to lower potency. As for `CCCc1cccc(-c2cc(NC(=O)[C@@H]3CNC(=O)C3)nn2-c2cccc(OCCOCc3ccccc3)c2)c1` [Example 407], the IC50 turned out to be 7.6 nM. The same measure, in the same setting: next, `CCCc1cccc(-c2cc(NC(=O)[C@@H]3CNC(=O)C3)nn2-c2cccc(OCCO)c2)c1` [Example 408]: 8 nM. On the same count and under the same terms, under `O=C1C[C@H](C(=O)Nc2cc(-c3cccc(COC(C(F)(F)F)C(F)(F)F)c3)n(-c3ccc(F)cc3)n2)CN1` [Example 409] stands 12 nM; under `Cc1cc(CO[C@H](C)C(F)(F)F)cc(-c2cc(NC(=O)[C@@H]3CNC(=O)C3)nn2-c2ccccc2)c1` [Example 410], 22 nM; under `Cc1cc(-c2cc(NC(=O)[C@@H]3CNC(=O)C3)nn2-c2ccccc2)cc(C(C)(C)C)c1` [Example 411], 4.4 nM. In the case of `CCCc1cccc(-c2cc(NC(=O)[C@@H]3CNC(=O)C3)nn2-c2cccc(OC3CCC3)c2)c1` [Example 412], the IC50 was found to be 10.9 nM. The same measure, in the same setting: next, `CCCc1cccc(-c2cc(NC(=O)[C@@H]3CNC(=O)C3)nn2-c2ccc(F)c(OCCOC)c2)c1` [Example 414]: 11.4 nM. On the same count and under the same terms, under `CCCc1cccc(-c2cc(NC(=O)[C@@H]3CNC(=O)C3)nn2-c2ccc(F)c(OCCO)c2)c1` [Example 415] stands 13 nM. Still for that read-out and setting: next, `COc1cc(-n2nc(NC(=O)[C@@H]3CNC(=O)C3)cc2-c2cccc(COCC(F)(F)F)c2)ccc1F` [Example 416]: 15 nM. In the case of `CCOc1cc(-n2nc(NC(=O)[C@@H]3CNC(=O)C3)cc2-c2cccc(COCC(F)(F)F)c2)ccc1F` [Example 417], inhibition was half-maximal at 4.3 nM (IC50). As for `CC(C)Oc1cc(-n2nc(NC(=O)[C@@H]3CNC(=O)C3)cc2-c2cccc(COCC(F)(F)F)c2)ccc1F` [Example 418], the IC50 was 2.35 nM. The compound `CCCOc1cc(-n2nc(NC(=O)[C@@H]3CNC(=O)C3)cc2-c2cccc(COCC(F)(F)F)c2)ccc1F` [Example 419] displayed a 50% inhibitory concentration (IC50) of 4.75 nM. On the same count and under the same terms, under `COc1cc(-n2nc(NC(=O)[C@@H]3CNC(=O)C3)cc2-c2cccc(OC(F)(F)F)c2)ccc1F` [Example 420] stands 47 nM; under `CCOc1cc(-n2nc(NC(=O)[C@@H]3CNC(=O)C3)cc2-c2cccc(OC(F)(F)F)c2)ccc1F` [Example 421], 20 nM; under `CC(C)Oc1cc(-n2nc(NC(=O)[C@@H]3CNC(=O)C3)cc2-c2cccc(OC(F)(F)F)c2)ccc1F` [Example 422], 14 nM.

As for `CCCOc1cc(-n2nc(NC(=O)[C@@H]3CNC(=O)C3)cc2-c2cccc(OC(F)(F)F)c2)ccc1F` [Example 423], 16 nM corresponded to half-maximal inhibition (IC50). Same read-out and setting: next, `CCCc1cccc(-c2cc(NC(=O)[C@@H]3CNC(=O)C3)nn2-c2cccc(OC(C)(C)C)c2)c1` [Example 435]: 3.45 nM; `O=C1C[C@H](C(=O)Nc2cc(-c3cccc(OC(F)(F)F)c3)n(-c3cccc(OCc4ccccc4)c3)n2)CN1` [Example 436]: 19 nM; `C[C@@H](OCc1cccc(-c2cc(NC(=O)[C@@H]3CNC(=O)C3)nn2-c2cccc(OCc3ccccc3)c2)c1)C(F)(F)F` [Example 438]: 3.1 nM. `C[C@@H](OCc1cccc(-c2cc(NC(=O)[C@@H]3CNC(=O)C3)nn2-c2cccc(O)c2)c1)C(F)(F)F` [Example 441]: the midpoint of inhibition, the IC50, lay at 9 nM. Still for that read-out and setting: next, `COc1cccc(-n2nc(NC(=O)[C@@H]3CNC(=O)C3)cc2-c2cccc(OC(F)(F)F)c2)c1` [Example 442]: 15 nM; `CCOc1cccc(-n2nc(NC(=O)[C@@H]3CNC(=O)C3)cc2-c2cccc(OC(F)(F)F)c2)c1` [Example 443]: 11 nM; `CCCOc1cccc(-n2nc(NC(=O)[C@@H]3CNC(=O)C3)cc2-c2cccc(OC(F)(F)F)c2)c1` [Example 444]: 10 nM. Same read-out and setting: next, `CC(C)Oc1cccc(-n2nc(NC(=O)[C@@H]3CNC(=O)C3)cc2-c2cccc(OC(F)(F)F)c2)c1` [Example 445]: 6.7 nM; `COc1cccc(-n2nc(NC(=O)[C@@H]3CNC(=O)C3)cc2-c2cccc(COCC(F)(F)F)c2)c1` [Example 446]: 5.6 nM; `CCOc1cccc(-n2nc(NC(=O)[C@@H]3CNC(=O)C3)cc2-c2cccc(COCC(F)(F)F)c2)c1` [Example 447]: 4.7 nM.

As to `CCCOc1cccc(-n2nc(NC(=O)[C@@H]3CNC(=O)C3)cc2-c2cccc(COCC(F)(F)F)c2)c1` [Example 448], the 50% inhibitory concentration (IC50) was found to be 4.3 nM. Still for that read-out and setting: next, `CC(C)Oc1cccc(-n2nc(NC(=O)[C@@H]3CNC(=O)C3)cc2-c2cccc(COCC(F)(F)F)c2)c1` [Example 449]: 2.3 nM; `COCCOc1cccc(-n2nc(NC(=O)[C@@H]3CNC(=O)C3)cc2-c2cccc(COCC(F)(F)F)c2)c1` [Example 450]: 8.1 nM; `COc1cccc(-n2nc(NC(=O)[C@@H]3CNC(=O)C3)cc2-c2cccc(CO[C@H](C)C(F)(F)F)c2)c1` [Example 451]: 3.3 nM. Still for that read-out and setting: next, `CCOc1cccc(-n2nc(NC(=O)[C@@H]3CNC(=O)C3)cc2-c2cccc(CO[C@H](C)C(F)(F)F)c2)c1` [Example 452]: 1.7 nM; `CCCOc1cccc(-n2nc(NC(=O)[C@@H]3CNC(=O)C3)cc2-c2cccc(CO[C@H](C)C(F)(F)F)c2)c1` [Example 453]: 1.7 nM.

The compound `CC(C)Oc1cccc(-n2nc(NC(=O)[C@@H]3CNC(=O)C3)cc2-c2cccc(CO[C@H](C)C(F)(F)F)c2)c1` [Example 454] had a concentration for half-maximal inhibition (IC50) of 2 nM. Still for that read-out and setting: under `COCCOc1cccc(-n2nc(NC(=O)[C@@H]3CNC(=O)C3)cc2-c2cccc(CO[C@H](C)C(F)(F)F)c2)c1` [Example 455] stands 3.1 nM; under `COCCOc1cc(-n2nc(NC(=O)[C@@H]3CNC(=O)C3)cc2-c2cccc(CO[C@H](C)C(F)(F)F)c2)ccc1F` [Example 456], 3.4 nM. On the same count and under the same terms, next, `COc1cc(-n2nc(NC(=O)[C@@H]3CNC(=O)C3)cc2-c2cccc(CO[C@H](C)C(F)(F)F)c2)ccc1F` [Example 457]: 3.7 nM. Still for that read-out and setting: under `CCCc1cccc(-c2cc(NC(=O)[C@@H]3CNC(=O)C3)nn2-c2cccc(COC(C)C)c2)c1` [Example 459] stands 4.8 nM; under `CCOc1ccc(F)c(-n2nc(NC(=O)[C@@H]3CNC(=O)C3)cc2-c2cccc(COCC(F)(F)F)c2)c1` [Example 460], 2.1 nM; under `CC(C)Oc1ccc(F)c(-n2nc(NC(=O)[C@@H]3CNC(=O)C3)cc2-c2cccc(COCC(F)(F)F)c2)c1` [Example 461], 1.4 nM. `COCCOc1ccc(F)c(-n2nc(NC(=O)[C@@H]3CNC(=O)C3)cc2-c2cccc(COCC(F)(F)F)c2)c1` [Example 462] showed an IC50 of 3.4 nM. As for `CCOc1ccc(F)c(-n2nc(NC(=O)[C@@H]3CNC(=O)C3)cc2-c2cccc(CO[C@H](C)C(F)(F)F)c2)c1` [Example 463], the concentration for half-maximal inhibition (IC50) was 1.1 nM.

The compound `CC(C)Oc1ccc(F)c(-n2nc(NC(=O)[C@@H]3CNC(=O)C3)cc2-c2cccc(CO[C@H](C)C(F)(F)F)c2)c1` [Example 464] had a concentration for half-maximal inhibition (IC50) of 1.4 nM. The same measure, in the same setting: under `COCCOc1ccc(F)c(-n2nc(NC(=O)[C@@H]3CNC(=O)C3)cc2-c2cccc(CO[C@H](C)C(F)(F)F)c2)c1` [Example 465] stands 1.7 nM. The same measure, in the same setting: next, `O=C1C[C@H](C(=O)Nc2cc(-c3cccc(OC(F)(F)F)c3)n(-c3ccccc3F)n2)CN1` [Example 466]: 16 nM; `O=C1C[C@H](C(=O)Nc2cc(-c3cccc(OC(F)(F)F)c3)n(-c3cccc(F)c3)n2)CN1` [Example 467]: 26 nM; `O=C1C[C@H](C(=O)Nc2cc(-c3cccc(COCC(F)(F)F)c3)n(-c3cccc(F)c3)n2)CN1` [Example 468]: 17 nM. For the compound `C[C@@H](OCc1cccc(-c2cc(NC(=O)[C@@H]3CNC(=O)C3)nn2-c2cccc(F)c2)c1)C(F)(F)F` [Example 469], the IC50 was 5.2 nM. The same measure, in the same setting: under `CCC(C)(C)C(=O)c1cccc(-c2cc(NC(=O)[C@@H]3CNC(=O)C3)nn2-c2ccccc2)c1` [Example 470] stands 7 nM.

For the compound `O=C1C[C@H](C(=O)Nc2cc(-c3cccc(COCC(F)(F)F)c3)n(-c3ccccc3F)n2)CN1` [Example 471], the IC50 was determined as 15 nM. Still for that read-out and setting: next, `C[C@@H](OCc1cccc(-c2cc(NC(=O)[C@@H]3CNC(=O)C3)nn2-c2ccccc2F)c1)C(F)(F)F` [Example 472]: 4.7 nM; `O=C1C[C@H](C(=O)Nc2cc(-c3cccc(OC(F)(F)F)c3)n(-c3ccccc3Cl)n2)CN1` [Example 473]: 7.5 nM. Still for that read-out and setting: under `O=C1C[C@H](C(=O)Nc2cc(-c3cccc(COCC(F)(F)F)c3)n(-c3ccccc3Cl)n2)CN1` [Example 474] stands 7.3 nM.

Still in this assay, the particulars now being: CHO-K1, at 0.1 uM.
The inhibition is the change of the read-out against control, counted positive when it falls. `CC(C)(C)OC(=O)c1cccc(-c2cc(NC(=O)[C@@H]3CNC(=O)C3)nn2-c2ccccc2)c1` [Example 413] returned an inhibition at 0.1 µM of 48%. `C[C@@H](OCc1ccc(F)c(-c2cc(NC(=O)[C@@H]3CNC(=O)C3)nn2-c2ccccc2)c1)C(F)(F)F` [Example 427] had an inhibition at 0.1 µM of 49%. Still for that read-out and setting: under `O=C1C[C@H](C(=O)Nc2cc(-c3cccc(CN4CCCC4)c3)n(-c3ccccc3)n2)CN1` [Example 428] stands 31%; under `CCCNC(=O)c1cccc(-c2cc(NC(=O)[C@@H]3CNC(=O)C3)nn2-c2ccccc2)c1` [Example 429], 40%; under `CCCN(C)C(=O)c1cccc(-c2cc(NC(=O)[C@@H]3CNC(=O)C3)nn2-c2ccccc2)c1` [Example 430], 8%. Still for that read-out and setting: next, `CC(C)NC(=O)c1cccc(-c2cc(NC(=O)[C@@H]3CNC(=O)C3)nn2-c2ccccc2)c1` [Example 431]: 21%; `CC(C)N(C)C(=O)c1cccc(-c2cc(NC(=O)[C@@H]3CNC(=O)C3)nn2-c2ccccc2)c1` [Example 432]: 14%. The same measure, in the same setting: next, `O=C1C[C@H](C(=O)Nc2cc(-c3cccc(C(=O)NCC(F)(F)F)c3)n(-c3ccccc3)n2)CN1` [Example 433]: 8%; `O=C1C[C@H](C(=O)Nc2cc(-c3cccc(OC(F)(F)F)c3)n(-c3cccc(O)c3)n2)CN1` [Example 439]: 45%.
